This note sets out measurements from US8519163B2, “Anti-tumor activity of AECHL-1, novel triterpenoid isolated from Ailanthus excelsa in vitro and in vivo” (National Centre for Cell Science, priority 2008, dated 2013).

SMILES strings stand for the structures.

Test [1] concerns B16F10 melanoma cells. The experiment in a line: In vivo allograft tumor model. The arrangement: species or system C57B1/6 mice. As to the method: (§1) The data reported for tumor volumes are expressed as mean±SEM. Statistical differences were determined by ANOVA and post test applied was Tukey-Kramer multiple comparison Test. For Tumor to body weight ratio post test applied was Dunnett multiple comparisons test.

The subject of test [2] is pp53. The experiment in a line: Western blot of tumor homogenates of C57B1/6 mice. It counts as in vivo, mouse. The note with it: tumor of C57 mice, 100 μg. As to the method: (§2) Prior to immunoblot analysis, tumor segments stored at −80° C. were thawed, washed, minced and homogenized in lysis buffer (120 mM NaCl, 1.0% Triton X 100, 20 mM Tris-HCl, pH 7.5, 10% glycerol, 2 mM EDTA, Protease inhibitor cocktail, Roche) using a Polytron homogenization device. Lysates were incubated at 4° C. for 30 min and centrifuged at 14000 r.p.m. in an Eppendorf micro centrifuge for 15 min. Proteins were isolated in solublised form. Protein concentrations were measured by Bradford assay (Bio-Rad protein assay kit) and stored at −80° C. For immunobloting, 60 μg of total protein from the tumor lysates were used Proteins were resolved in a 10% SDS-polyacrylamide gel, transferred to the immobilon-P […] membrane and blocked with 5% (wt/v) non fat dry milk powder (Sigma) in TBST buffer (10 mM Tris pH 7.6, 150 mM NaCl and 0.1% Tween-20) for three hours at room temperature and then incubated with primary antibodies p53, pp53, p21, Cyclin D1, CDK4 and c-Myc in TBST for 3 h and with actin for 1 hour at room temperature. The membrane was incubated further with the secondary antibody HRP-conjugated (BD Bioscience) at 1:10000 dilution for 1 h at room temperature. Following each antibody incubation, the membrane was washed thoroughly with TBST buffer 3 times. The protein bands were visualized using the enhanced chemiluminescence substrate reaction (Pierce) according to the manufacturer's instructions using X-OMAT AR5 film (Kodak)
(A western blot detects proteins with antibodies after separation by electrophoresis.)

The subject of test [3] is p53. The experiment in a line: Western blot of tumor homogenates of C57B1/6 mice. It counts as in vivo, mouse. Conditions: tumor of C57 mice, 100 μg, compared with control. As to the method:
as §2

The subject of test [4] is p21. The experiment in a line: Western blot of tumor homogenates of C57B1/6 mice. The note with it: tumor of C57 mice, 100 μg. It counts as in vivo, mouse. As to the method:
as §2

For test [5], the system named is MCF-7 cells. The experiment in a line: Cell cycle analysis by flow cytometry. It counts as cell-based, human. The note with it: 24 h. As to the method: The cell cycle analysis of MCF-7, B16F10 MDA-MB-231 and PC3 cells was done by flow cytometry. […] Cells were harvested with trypsin (0.05%), 0.02% EDTA, 0.05% glucose and a single-cell suspension was prepared. Cells were washed and were pelleted by centrifugation (1000×g for 2 min) and fixed in 70% ethanol while vortexing and stored at 4° C. for 1 hour. Fixed cells were pelleted by centrifugation, to remove ethanol and washed with PBS. Cells were re-suspended in PBS containing 50 μg/ml propidium iodide, 0.1 g/L RNase and 1% BSA, incubated for 30 min at 37° C. in the dark, and analyzed with flow cytometry (FACS Vantage-BD Sciences, USA) equipped with an argon laser at 488 nm. The data was analyzed using Cell Quest software for determining the percent population in different phases of cell cycle.

Test [6] relates to MCF-7. The experiment in a line: In vivo xenograft tumor model. More on the design: species or system athymic nude mice. As to the method:
as §1

Test [7] relates to cellular microtubule network. The experiment in a line: Immunocytochemistry, microtubule network in MCF-7 cells. The note with it: paclitaxel 1-20 μM, AECHL-1 2-40 μM, 24 h, confocal microscopy. It counts as cell-based, human. As to the method:
Immunocytochemistry was performed as described previously. […] Cells were incubated with primary anti-p53 antibodies (1:100; Abcam) and anti-α-tubulin antibodies (1:10000; Sigma chemical Co.) for 1 hour at room temperature. After washing with PBS, cells were incubated with CY2-conjugated secondary antibodies (1:200; Chemicon, Germany) and Alexa-conjugated secondary antibodies (1:10000; Sigma, St. Louis, Mo.) for 45 minutes and nuclear staining was done with DAPI. Images were captured under confocal microscope.
The tumor suppressor p53 plays a critical role in preventing human cancer formation. It translocates into the nucleus and works as a transcription factor by upregulating cell cycle regulatory proteins and induces cell cycle arrest and/or programmed cell death (apoptosis) (11). […] After 24 h of incubation, the p53 translocation in the nucleus (green fluorescence) and microtubule network (red fluorescence) was visualized by confocal microscopy.

For the molecule `N.N.[Cl][Pt][Cl]` [Cisplatin, reference compound], the “tumor size reduced by” value in test [1] (B16F10 allograft, 100 μg intra-tumor for 12 days, day 18) was determined as 93.13±0.539%. The “tumor volume on day 24” value in test [1] (B16F10 allograft, 100 μg, day 24) is on record as “decreased”. Also, the “histological examination of tumor tissue” value in test [1] (C57 mice, 100 μg) is recorded as “significant increase in necrotic nuclei with decreased tumor cell density”. Also, the “phosphorylation of p53 (pp53)” value in test [2] was “did not show any change”. The p53 protein expression result in test [3] was “increasing expression”. Also, the “expression of p21” value in test [4] is on record as “increased p21 expression”.

With `CC(=O)O[C@H]1C(=O)[C@@]2(C)[C@H]([C@H](OC(=O)c3ccccc3)[C@]3(O)C[C@H](OC(=O)[C@H](O)[C@@H](NC(=O)c4ccccc4)c4ccccc4)C(C)=C1C3(C)C)[C@]1(OC(C)=O)CO[C@@H]1C[C@@H]2O` [Paclitaxel, reference compound], in test [5] (MCF-7, 1 μM), the “Phase of cell cycle (% of cells) G2/M” value was 72.55%, the “Phase of cell cycle (% of cells) S” value was 18.65% and the “Phase of cell cycle (% of cells) Sub G0” value is 3.45%. In addition, in test [5] (MCF-7, 2 μM), the “Phase of cell cycle (% of cells) G1” value is listed as 7.41%, the “Phase of cell cycle (% of cells) G2/M” value came to 63.71%, the “Phase of cell cycle (% of cells) S” value worked out at 22.89% and the “Phase of cell cycle (% of cells) Sub G0” value is recorded as 5.21%. Further, in test [5] (MCF-7, 5 μM), the “Phase of cell cycle (% of cells) G2/M” value worked out at 72.86%, the “Phase of cell cycle (% of cells) S” value turned out to be 18.35% and the “Phase of cell cycle (% of cells) Sub G0” value was 3.98%. Besides, in test [5] (MCF-7, 10 μM), the “Phase of cell cycle (% of cells) G2/M” value is recorded as 69.36%, the “Phase of cell cycle (% of cells) S” value was determined as 18.96% and the “Phase of cell cycle (% of cells) Sub G0” value worked out at 3.47%. In addition, the “tumor size reduced by” value in test [6] (MCF-7 xenograft, 20 μg/0.05 ml intra-tumor for 10 days) amounted to 14.19±0.32%. Further, in test [6] (nude mice, 20 μg), the “histological examination of tumor tissue” value is given as “lowered the tumor cell density”. The “effect on microtubule network” value in test [7] is on record as “microtubule polymerization with an increase in the density of cellular microtubules”.
